Test results reported in US20050101595A1, “N-containing cycloalkyl-substituted amino-thiazole derivatives and pharmaceutical compositions for inhibiting cell proliferation and methods for their use” (PFIZER INC., priority 2003, published 2005).
Where a name gives a salt, the structure may show the parent alone. Read-outs that look alike come from different tables or passages of the source.

What was measured:
HCT-116 cell line = assay: Inhibition of cell growth, tetrazolium salt (MTT) assay; format: cell-based; conditions: for HCT-116 % Inhibition at 0.25 μM: 0.25 μM compound; for IC50: Homo sapiens, HCT-116, 120 h, MTT, three to five days, read-out: HCT-116 IC50
In short: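 MTT colorimetric viability: three-to-five-day compound exposure in 0.5% (v/v) DMSO at 37° C, MTT 0.2 mg/mL for the last 4 h, A540 compared with vehicle-treated cells.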

CDK2/Cyclin A = CDK2/Cyclin A (Homo sapiens, UniProt P24941); assay: Inhibition of CDK2/Cyclin A Retinoblastoma Kinase Activity; format: biochemical; conditions: for CDK2 % Inhibition At 0.03 μM: Table 2; for Ki: apparent Ki, CDK2/proteolyzed cyclin A, Rb fragment substrate, 25 μM ATP
In short: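 Human CDK2, baculovirus/insect-cell expressed, complexed with proteolyzed cyclin A (10 nM or 19 nM CDK2) phosphorylates an Rb fragment with 25 μM [32P/33P]ATP at pH 7.4, 30° C, for 60 or 75 minutes under initial-rate conditions. Filter-captured radioactivity is read by phosphorimager; apparent Ki from competitive-inhibition fits.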

[1] = molecular target: human CDK4 and genetically truncated (1-264) cyclin D3 (Homo sapiens, UniProt P11802); assay: Inhibition of CDK4/Cyclin D Retinoblastoma Kinase Activity; format: biochemical; conditions: for Ki: apparent Ki, CDK4/truncated cyclin D3, Rb fragment substrate, 25 μM ATP
Sequence of human CDK4 and genetically truncated (1-264) cyclin D3 (P11802 whole entry, the tested form may be a part): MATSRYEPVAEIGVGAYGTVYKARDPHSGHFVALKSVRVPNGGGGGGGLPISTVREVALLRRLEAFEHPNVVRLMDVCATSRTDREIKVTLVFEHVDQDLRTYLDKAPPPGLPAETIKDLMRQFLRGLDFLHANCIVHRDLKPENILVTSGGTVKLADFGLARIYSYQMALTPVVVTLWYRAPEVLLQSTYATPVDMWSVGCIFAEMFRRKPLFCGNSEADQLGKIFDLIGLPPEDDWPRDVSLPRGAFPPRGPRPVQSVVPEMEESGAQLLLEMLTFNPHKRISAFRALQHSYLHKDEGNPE
Sequence of human CDK4 and genetically truncated (1-264) cyclin D3 (P30281 1-264 partner): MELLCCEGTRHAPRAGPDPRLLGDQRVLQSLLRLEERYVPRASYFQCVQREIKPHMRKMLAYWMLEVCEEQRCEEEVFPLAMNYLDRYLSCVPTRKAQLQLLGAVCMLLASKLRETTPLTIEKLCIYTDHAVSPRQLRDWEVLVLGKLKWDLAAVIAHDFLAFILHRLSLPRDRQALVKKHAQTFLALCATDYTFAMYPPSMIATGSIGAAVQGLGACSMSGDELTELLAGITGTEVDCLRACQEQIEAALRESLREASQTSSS
In short: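 Read-out: 32P/33P incorporation into Rb fragment (386-928) captured on nitrocellulose, phosphorimager. Enzyme 5 nM CDK4/cyclin D3(1-264) from insect cells; ATP 25 μM, pH 7.4, 30 °C, 20 min (60 min for tight binders). Ki from competitive fits.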

[2] = 0.1 μM compound, HCT-116, Table 4

## Nc1nc(NC2CCN(C(=O)NCCc3ccccc3)CC2)sc1C(=O)c1c(F)cccc1F [Example O57]
HCT-116 cell line; HCT-116, Table 2
  HCT-116 % Inhibition at 0.25 μM: 41%
CDK2/Cyclin A; 0.03 μM compound
  CDK2 % Inhibition At 0.03 μM: 28%
[1]; 0.03 μM compound, Table 2
  CDK4 % Inhibition at 0.03 μM: −2%

## Nc1nc(NC2CCN(S(=O)(=O)CCN(CC3CC3)CC3CC3)CC2)sc1C(=O)c1c(F)cccc1F [Example K54, (4-Amino-2-{1-[2-(bis-cyclopropylmethyl-amino)-ethanesulfonyl]-piperidin-4-ylamino}-thiazol-5-yl)-(2,6-difluoro-phenyl)-methanone]
HCT-116 cell line; first HCT-116 column (c4)
  IC50: 280 nM
HCT-116 cell line; second HCT-116 column (c5)
  IC50: 800 nM
CDK2/Cyclin A
  Ki: 5 nM
[1]
  Ki: 1.3 nM

## Nc1nc(NC2CCN(S(=O)(=O)Nc3ccccc3)CC2)sc1C(=O)c1c(F)cccc1F [Example E2, 4-[4-Amino-5-(2,6-difluoro-benzoyl)-thiazol-2-ylamino]-piperidine-1-sulfonic acid phenylamide]
HCT-116 cell line; first HCT-116 column (c4)
  IC50: 680 nM
HCT-116 cell line; second HCT-116 column (c5)
  IC50: 1300 nM
CDK2/Cyclin A
  Ki: 1.2 nM
[1]
  Ki: 3.9 nM

## Nc1nc(NC2CCN(S(=O)(=O)c3cc(Cl)sc3Cl)CC2)sc1C(=O)c1c(F)cccc1F [Example F13, 1-{4-Amino-2-[1-(2,5-dichloro-thiophene-3-sulfonyl)-piperidin-4-ylamino]-thiazol-5-yl}-1-(2,6-difluoro-phenyl)-methanone]
HCT-116 cell line; first HCT-116 column (c4)
  IC50: 610 nM
HCT-116 cell line; second HCT-116 column (c5)
  IC50: 2600 nM
CDK2/Cyclin A
  Ki: 8.7 nM
[1]
  Ki: 5.8 nM

## CN1CC[C@@H](Oc2ccc(S(=O)(=O)N3CCC(Nc4nc(N)c(C(=O)c5c(F)cccc5F)s4)CC3)cn2)C1 [Example H27, (4-Amino-2-{1-[6-(1-methyl-pyrrolidin-3R-yloxy)-pyridine-3-sulfonyl]-piperidin-4-ylamino}-thiazol-5-yl)-(2,6-difluoro-phenyl)-methanone Hydrochloride]
HCT-116 cell line; first HCT-116 column (c4)
  IC50: 80 nM
HCT-116 cell line; second HCT-116 column (c5)
  IC50: 290 nM
CDK2/Cyclin A
  Ki: 0.35 nM
[1]
  Ki: 0.97 nM

## Nc1nc(NC2CCN(C(=O)NCCc3ccc4c(c3)OCO4)CC2)sc1C(=O)c1c(F)cccc1F [Example O87]
HCT-116 cell line; HCT-116, Table 2
  HCT-116 % Inhibition at 0.25 μM: 44%
CDK2/Cyclin A; 0.03 μM compound
  CDK2 % Inhibition At 0.03 μM: 25%
[1]; 0.03 μM compound, Table 2
  CDK4 % Inhibition at 0.03 μM: 16%

## Nc1nc(NC2CCN(S(=O)(=O)c3ccc(N4CCOCC4)nc3)CC2)sc1C(=O)c1c(F)cccc1F [Example F20, 1-{4-Amino-2-[1-(6-morpholin-4-yl-pyridine-3-sulfonyl)-piperidin-4-ylamino]-thiazol-5-yl}-1-(2,6-difluoro-phenyl)-methanone Hydrochloride]
HCT-116 cell line; first HCT-116 column (c4)
  IC50: 170 nM
HCT-116 cell line; second HCT-116 column (c5)
  IC50: 1300 nM
CDK2/Cyclin A
  Ki: 1.4 nM
[1]
  Ki: 1.3 nM

## COC(=O)c1cccc(NC(=O)N2CCC(Nc3nc(N)c(C(=O)c4c(F)cccc4F)s3)CC2)c1 [Example O60]
HCT-116 cell line; HCT-116, Table 2
  HCT-116 % Inhibition at 0.25 μM: 39%
CDK2/Cyclin A; 0.03 μM compound
  CDK2 % Inhibition At 0.03 μM: 24%
[1]; 0.03 μM compound, Table 2
  CDK4 % Inhibition at 0.03 μM: 12%

## Cc1cccc(CNCCS(=O)(=O)N2CCC(Nc3nc(N)c(C(=O)c4c(F)cccc4F)s3)CC2)c1 [Example K41, (4-Amino-2-{1-[2-(3-methyl-benzylamino)-ethanesulfonyl]-piperidin-4-ylamino}-thiazol-5-yl)-(2,6-difluoro-phenyl)-methanone]
HCT-116 cell line; first HCT-116 column (c4)
  IC50: 70 nM
HCT-116 cell line; second HCT-116 column (c5)
  IC50: 170 nM
CDK2/Cyclin A
  Ki: 0.63 nM
[1]
  Ki: 1.9 nM

## CCC(C)CC(=O)N1CCC(Nc2nc(N)c(C(=O)c3c(F)cccc3F)s2)CC1 (stereo not shown) [Example R171]
HCT-116 cell line; HCT-116 cells, at 0.1 μM
  HCT-116 % Inhibition at 0.1 μM: 0%
HCT-116 cell line; HCT-116 cells
  HCT-116 5 Inhibition at 0.25 μM: 46
CDK2/Cyclin A; at 0.03 μM
  CDK2 % Inhibition at 0.03 μM: 23%
[1]; at 0.03 μM
  CDK4 % Inhibition at 0.03 μM: 39%

## Nc1nc(NC2CCN(S(=O)(=O)c3ccc(OCCN4CCCCC4)nc3)CC2)sc1C(=O)c1c(F)cccc1F [Example H6, 1-[4-Amino-2-{1-[6-(2-piperidin-1-yl-ethoxy)-pyridine-3-sulfonyl]-piperidin-4-ylamino}-thiazol-5-yl)-1-(2,6-difluoro-phenyl)-methanone Dihydrochloride]
HCT-116 cell line; first HCT-116 column (c4)
  IC50: 60 nM
HCT-116 cell line; second HCT-116 column (c5)
  IC50: 500 nM
CDK2/Cyclin A
  Ki: 0.84 nM
[1]
  Ki: 0.38 nM

## Nc1nc(NC2CCN(S(=O)(=O)CCN3CC=CC3)CC2)sc1C(=O)c1c(F)cccc1F [Example K36, (4-Amino-2-{1-[2-(2,5-dihydro-pyrrol-1-yl)-ethanesulfonyl]-piperidin-4-ylamino}-thiazol-5-yl)-(2,6-difluoro-phenyl)-methanone.]
HCT-116 cell line; first HCT-116 column (c4)
  IC50: 650 nM
HCT-116 cell line; second HCT-116 column (c5)
  IC50: 1900 nM
CDK2/Cyclin A
  Ki: 7.5 nM
[1]
  Ki: 6.6 nM

## Nc1nc(NC2CCN(S(=O)(=O)c3ccc(-c4ccncc4)nc3)CC2)sc1C(=O)c1c(F)cccc1F [Example I7, 1-{4-Amino-2-[1-([2,4′]bipyridinyl-5-sulfonyl)-piperidinin-4-ylamino]-thiazol-5-yl}-1-(2,6-difluoro-phenyl)-methanone]
HCT-116 cell line; first HCT-116 column (c4)
  IC50: 1300 nM
HCT-116 cell line; second HCT-116 column (c5)
  IC50: 5000 nM
CDK2/Cyclin A
  Ki: < 1 nM
[1]
  Ki: 0.38 nM

## Nc1nc(NC2CCN(C(=O)c3ccc(F)cc3)CC2)sc1C(=O)c1c(F)cccc1F [Example Q26]
HCT-116 cell line; [2]
  HCT-116 % Inhibition at 0.1 μM: 3%
HCT-116 cell line; HCT-116, Table 4
  HCT-116 % Inhibition at 0.25 μM: 42%
CDK2/Cyclin A; 0.03 μM compound, Table 4
  CDK2 % Inhibition at 0.03 μM: 18%
[1]; 0.03 μM compound, Table 4
  CDK4 % Inhibition at 0.03 μM: 60%

## Nc1nc(NC2CCN(C(=O)Nc3ccc(Cl)cc3)CC2)sc1C(=O)c1c(F)cccc1F [Example O20]
HCT-116 cell line; HCT-116, Table 2
  HCT-116 % Inhibition at 0.25 μM: 15%
CDK2/Cyclin A; 0.03 μM compound
  CDK2 % Inhibition At 0.03 μM: 26%
[1]; 0.03 μM compound, Table 2
  CDK4 % Inhibition at 0.03 μM: 7%

## CCCSc1ncccc1C(=O)N1CCC(Nc2nc(N)c(C(=O)c3c(F)cccc3F)s2)CC1 [Example R28]
HCT-116 cell line; HCT-116 cells, at 0.1 μM
  HCT-116 % Inhibition at 0.1 μM: 0%
HCT-116 cell line; HCT-116 cells
  HCT-116 5 Inhibition at 0.25 μM: 41
CDK2/Cyclin A; at 0.03 μM
  CDK2 % Inhibition at 0.03 μM: 58%
[1]; at 0.03 μM
  CDK4 % Inhibition at 0.03 μM: 66%

## CCCCc1ccc(C(=O)N2CCC(Nc3nc(N)c(C(=O)c4c(F)cccc4F)s3)CC2)cc1 [Example Q36]
HCT-116 cell line; [2]
  HCT-116 % Inhibition at 0.1 μM: 0.49%
HCT-116 cell line; HCT-116, Table 4
  HCT-116 % Inhibition at 0.25 μM: 31%
CDK2/Cyclin A; 0.03 μM compound, Table 4
  CDK2 % Inhibition at 0.03 μM: 16%
[1]; 0.03 μM compound, Table 4
  CDK4 % Inhibition at 0.03 μM: 45%

## Nc1nc(NC2CCN(S(=O)(=O)CCCN3CCSCC3)CC2)sc1C(=O)c1c(F)cccc1F [Example K13, 1-(4-Amino-2-{1-[3-(thiomorpholin-4-yl)propane-1-sulfonyl]-piperidin-4-ylamino}-thiazol-5-yl)-1-(2,6-difluoro-phenyl)-methanone.]
HCT-116 cell line; first HCT-116 column (c4)
  IC50: 390 nM
HCT-116 cell line; second HCT-116 column (c5)
  IC50: 1300 nM
CDK2/Cyclin A
  Ki: 3.9 nM
[1]
  Ki: 2.5 nM

## Nc1nc(NC2CCN(C(=O)c3cnn(-c4ccccc4)c3C(F)(F)F)CC2)sc1C(=O)c1c(F)cccc1F [Example R52]
HCT-116 cell line; HCT-116 cells, at 0.1 μM
  HCT-116 % Inhibition at 0.1 μM: 2%
HCT-116 cell line; HCT-116 cells
  HCT-116 5 Inhibition at 0.25 μM: 49
CDK2/Cyclin A; at 0.03 μM
  CDK2 % Inhibition at 0.03 μM: 5%
[1]; at 0.03 μM
  CDK4 % Inhibition at 0.03 μM: 23%

## Nc1nc(NC2CCN(C(=O)c3sccc3Cl)CC2)sc1C(=O)c1c(F)cccc1F [Example R51]
HCT-116 cell line; HCT-116 cells, at 0.1 μM
  HCT-116 % Inhibition at 0.1 μM: 0%
HCT-116 cell line; HCT-116 cells
  HCT-116 5 Inhibition at 0.25 μM: 37
CDK2/Cyclin A; at 0.03 μM
  CDK2 % Inhibition at 0.03 μM: 62%
[1]; at 0.03 μM
  CDK4 % Inhibition at 0.03 μM: 48%

## Nc1nc(NC2CCN(C(=O)N3CCOCC3)CC2)sc1C(=O)c1c(F)cccc1F [Example R80]
HCT-116 cell line; HCT-116 cells, at 0.1 μM
  HCT-116 % Inhibition at 0.1 μM: 0%
HCT-116 cell line; HCT-116 cells
  HCT-116 5 Inhibition at 0.25 μM: 47
CDK2/Cyclin A; at 0.03 μM
  CDK2 % Inhibition at 0.03 μM: 7%
[1]; at 0.03 μM
  CDK4 % Inhibition at 0.03 μM: 37%

## Nc1nc(NC2CCN(S(=O)(=O)c3cccs3)CC2)sc1C(=O)c1c(F)cccc1F [Example P5]
HCT-116 cell line; 0.1 μM compound, HCT-116, Table 3
  HCT-116 % Inhibition at 0.1 μM: 27%
HCT-116 cell line; HCT-116, Table 3
  HCT-116 % Inhibition at 0.25 μM: 32%
CDK2/Cyclin A; 0.03 μM compound, Table 3
  CDK2 % Inhibition at 0.03 μM: 64%
[1]; 0.03 μM compound, Table 3
  CDK4 % Inhibition at 0.03 μM: 70%

## CCN(CC)C(=O)N1CCC(Nc2nc(N)c(C(=O)c3c(F)cccc3F)s2)CC1 [Example Q3]
HCT-116 cell line; [2]
  HCT-116 % Inhibition at 0.1 μM: 0%
HCT-116 cell line; HCT-116, Table 4
  HCT-116 % Inhibition at 0.25 μM: 42%
CDK2/Cyclin A; 0.03 μM compound, Table 4
  CDK2 % Inhibition at 0.03 μM: −43%
[1]; 0.03 μM compound, Table 4
  CDK4 % Inhibition at 0.03 μM: 11%
